Measurements as given in patent US8691799B2, “Materials and methods for treatment of cancer and identification of anti-cancer compounds” (priority 2001, dated 2014).
pIC50: −log10 of the molar value. Entries after “also recorded” stand apart in the source; their conditions may differ.

Key:
phosphotyrosine JAK2 = test: Western blotting for phosphotyrosine JAK2; type: cell-based, human; conditions: A-549 cells; for inhibition of phospho JAK2 levels (in words): 0-10 μM; for pIC50: Western blotting, read-out: IC50 for phospho-JAK2
Procedure: (§1) Western Blotting. Treated cell samples were lysed in 30 mM Hepes, pH 7.5, 10 mM NaCl, 5 mM MgCl2, 25 mM NaF, 1 mM EGTA, 1% Triton-X-100, 10% glycerol, 2 mM sodium orthovanadate, 10 μg/ml aprotinin, 10 μg/ml soybean trypsin inhibitor, 25 μg/ml leupeptin, 2 mM PMSF, and 6.4 mg/ml p-nitrophenylphosphate. Phospho-STAT3, phospho-AKT, phospho-MEK, and phospho-p42/p44 MAPK antibodies were obtained from Cell Signaling Technologies, Cambridge, Mass. Antibodies to STAT3, JAK2, and phospho-INK were purchased from Santa Cruz Biotechnology, Santa Cruz, Calif. Phospho-JAK2 antibody came from Upstate Biotechnology, Lake Placid, N.Y. Membranes were blocked in either 5% milk in PBS, pH 7.4, containing 0.1% Tween-20 (PBS-T) or 1% BSA in TBS, pH 7.5, containing 0.1% Tween-20 (TBS-T). Phospho-specific antibodies (excepting P-MAPK and P-JNK) were incubated in 1% BSA in TBS-T while all other antibodies were diluted in 5% milk in PBS-T for either 2 hr at room temperature or overnight at 4° C. HRP-conjugated secondary antibodies (Jackson ImmunoResearch) were diluted in 5% milk in either PBS-T or TBS-T at 1:1000 dilution for one hour at room temperature. Western blots were visualized using enhanced chemiluminescence as described previously (Blaskovich, M. A. et al. Nat. Biotechnol., 2000, 18:1065-1070).

phosphotyrosine STAT3 = test: Western blotting for phosphotyrosine STAT3 in cancer cell lines; type: cell-based, human; conditions: A-549 cells; for inhibition of phospho STAT3 levels (in words): 0-10 μM; for pIC50: Western blotting, read-out: IC50 for phospho-STAT3
Procedure: as §1
Immunoprecipitation of STAT3. A549 cells were treated for 4 hr with vehicle or JSI-124, then lysed in 150 mM Hepes, pH 7.5, 150 mM NaCl, 1 mM EDTA, 0.5% Nonidet P-40 (NP-40), 10% glycerol, 5 mM NaF, 1 mM DTT, 1 mM PMSF, 2 mM sodium orthovanadate, and 5 μg/ml leupeptin. Sample lysates were collected and cleared, then 500 μg of lysate was immunoprecipitated with 50 ng STAT3 antibody overnight at 4° C. then rocked with 25 μl Protein A/G PLUS agarose (Santa Cruz Biotechnology) for 1 hr at 4° C. Samples were washed four times with lysis buffer then boiled in 2×SDS-PAGE sample buffer and run on 10% SDS-PAGE gel. Protein was transferred to nitrocellulose and then blotted as above for both phospho-specific STAT3 and STAT3.

v-Src/NIH 3T3 tumors = test: Antitumor activity, v-Src-transformed NIH 3T3 tumors in nude mice; type: in vivo; conditions: for inhibition of growth of v-src transformed NIH 3T3 tumors (in words): 1 mg/Kg/day intraperitoneally
From the text: Antitumor Activity in the Nude Mouse Tumor Xenograft Model. Nude mice and C57 BL-6 black mice (National Cancer Institute, Bethesda, Md.) were maintained in accordance with the Institutional Animal Care and Use Committee (IACUC) procedures and guidelines. v-Src- and oncogenic H-Ras-transformed NIH 3T3, A549, MDA-MB-468 and Calu-1 cells were harvested, resuspended in PBS and injected s.c. into the right and left flank (10×10^6 cells per flank) of 8 week old female nude mice as reported previously (Sun, J. et al. Cancer Res., 1999, 59:4919-4926). Similarly, murine B16-F10 Melanoma cells were injected s.c. into the right and left flank (10^6 cells per flank) of C57 black mice. […] […] The tumor volumes were determined by measuring the length (l) and the width (w) and calculating the volume (V=1w^2/2) as described previously (Sun, J. et al. Cancer Res., 1999, 59:4919-4926). Statistical significance between control and treated animals were evaluated by using Student's t-test. For the mouse survival experiments, C57 BL-6 black mice were implanted s.c. with B16-F10 cells (10^5 to 10^6 cells per flank). […] Percent surviving mice was determined by monitoring the death of mice until all mice died. Two experiments of 12 animals each (6 control and 6 treated with JSI-124) were carried out. For statistical analysis: for each of the two experiments, mice receiving JSI-124 were compared to those receiving vehicle control with respect to survival using the permutation log rank test as implemented in the statistical software package, ProcStatXact (p-values are two sided and exact).

[1] = Tolerability observations in treated mice; type: in vivo
From the text: Antitumor Activity in the Nude Mouse Tumor Xenograft Model. Nude mice and C57 BL-6 black mice (National Cancer Institute, Bethesda, Md.) were maintained in accordance with the Institutional Animal Care and Use Committee (IACUC) procedures and guidelines. v-Src- and oncogenic H-Ras-transformed NIH 3T3, A549, MDA-MB-468 and Calu-1 cells were harvested, resuspended in PBS and injected s.c. into the right and left flank (10×10^6 cells per flank) of 8 week old female nude mice as reported previously (Sun, J. et al. Cancer Res., 1999, 59:4919-4926). Similarly, murine B16-F10 Melanoma cells were injected s.c. into the right and left flank (10^6 cells per flank) of C57 black mice. When tumors reached about 150 mm^3, animals were randomized (five animals per group; two tumors per animal) and dosed i.p. with 0.2 ml once daily. […] The tumor volumes were determined by measuring the length (l) and the width (w) and calculating the volume (V=1w^2/2) as described previously (Sun, J. et al. Cancer Res., 1999, 59:4919-4926). Statistical significance between control and treated animals were evaluated by using Student's t-test. For the mouse survival experiments, C57 BL-6 black mice were implanted s.c. with B16-F10 cells (10^5 to 10^6 cells per flank). On day 5 after implantation the mice were randomized (6 animals per group) and treated with either vehicle or JSI-124 (1 mg/Kg/day) for 25 days. Percent surviving mice was determined by monitoring the death of mice until all mice died. Two experiments of 12 animals each (6 control and 6 treated with JSI-124) were carried out. For statistical analysis: for each of the two experiments, mice receiving JSI-124 were compared to those receiving vehicle control with respect to survival using the permutation log rank test as implemented in the statistical software package, ProcStatXact (p-values are two sided and exact).

Compound: CC(=O)OC(C)(C)/C=C/C(=O)[C@](C)(O)[C@H]1[C@H](O)C[C@@]2(C)[C@@H]3CC=C4[C@@H](C[C@H](O)C(=O)C4(C)C)[C@]3(CO)C(=O)C[C@]12C [cucurbitacin A]
- inhibition of phospho JAK2 levels (in words) (phosphotyrosine JAK2): inhibits only phospho JAK2
- pIC50 (phosphotyrosine JAK2): 6.00
- inhibition of phospho STAT3 levels (in words) (phosphotyrosine STAT3): not phospho STAT3 levels; also recorded: no phospho STAT3 levels
- pIC50 (phosphotyrosine STAT3): < 5.00
- inhibition of growth of v-src transformed NIH 3T3 tumors (in words) (v-Src/NIH 3T3 tumors): did not significantly inhibit tumor growth
- inhibition of growth of v-src transformed NIH 3T3 tumors (in words) (v-Src/NIH 3T3 tumors; listed as curbitacin A): did not
- inhibition of growth of v-Src/NIH 3T3 tumors (v-Src/NIH 3T3 tumors; 1 mg/kg/day i.p.): 16%

Compound: CC(=O)OC(C)(C)/C=C/C(=O)[C@](C)(O)[C@H]1[C@H](O)C[C@@]2(C)[C@@H]3CC=C4[C@H](C[C@H](O)C(=O)C4(C)C)[C@]3(C)C(=O)C[C@]12C [cucurbitacin B]
- toxicity in tumor-bearing nude mice at 1 mpk ([1]; 1 mg/kg/day i.p.): toxic
- toxicity in tumor-bearing nude mice at 0.2 mpk/day ([1]; 0.2 mpk/day (200 μg/kg/day)): not toxic
- pIC50 (phosphotyrosine JAK2): 6.70
- additional loss of inhibitory activity against phosphotyrosine-STAT3 versus cucurbitacin E (phosphotyrosine STAT3): five-fold
- pIC50 (phosphotyrosine STAT3): 5.40
- inhibition of growth of v-Src/NIH 3T3 tumors, 0.2 mpk/day (v-Src/NIH 3T3 tumors; 0.2 mpk/day): 40%

Compound: CC(C)(O)/C=C/C(=O)[C@](C)(O)[C@H]1[C@H](O)C[C@@]2(C)[C@@H]3CC=C4[C@@H](C[C@H](O)C(=O)C4(C)C)[C@]3(C)C(=O)C[C@]12C [cucurbitacin D]
- change of activity against phospho JAK2 versus cucurbitacin B (phosphotyrosine JAK2): no effects
- reduction of activity against phospho STAT3 versus cucurbitacin B (phosphotyrosine STAT3): 2 fold

Compound: CC(=O)OC(C)(C)/C=C/C(=O)[C@](C)(O)[C@H]1[C@H](O)C[C@@]2(C)[C@@H]3CC=C4[C@@H](C=C(O)C(=O)C4(C)C)[C@]3(C)C(=O)C[C@]12C [cucurbitacin E]
- pIC50 (phosphotyrosine JAK2): 6.70
- loss of activity against phospho-STAT3 versus cucurbitacin I (phosphotyrosine STAT3): four-fold
- pIC50 (phosphotyrosine STAT3): 6.10
- inhibition of growth of v-src transformed NIH 3T3 tumors (in words) (v-Src/NIH 3T3 tumors): inhibit tumor growth

Compound: CC(C)(O)CCC(=O)[C@](C)(O)[C@H]1[C@H](O)C[C@@]2(C)[C@@H]3CC=C4[C@@H](C[C@H](O)C(=O)C4(C)C)[C@]3(C)C(=O)C[C@]12C [tetrahydro-cucurbitacin I]
- change of activity against phospho JAK2 versus cucurbitacin I (phosphotyrosine JAK2): reduction of activity against phospho-STAT3 and phospho JAK2
- change of activity against phospho-STAT3 versus cucurbitacin I (phosphotyrosine STAT3): reduction of activity against phospho-STAT3 and phospho JAK2
- inhibition of growth of v-src transformed NIH 3T3 tumors (in words) (v-Src/NIH 3T3 tumors): inhibit tumor growth

Compound: cucurbitacin Q
- inhibition of phospho JAK2 levels (in words) (phosphotyrosine JAK2): not phospho JAK2 levels
- pIC50 (phosphotyrosine JAK2): < 5.00
- gain in activity against STAT3 activation versus cucurbitacin B (phosphotyrosine STAT3): 2 fold
- inhibition of phospho STAT3 levels (in words) (phosphotyrosine STAT3): inhibits phospho STAT3
- pIC50 (phosphotyrosine STAT3): 5.70
- inhibition of growth of v-src transformed NIH 3T3 tumors (in words) (v-Src/NIH 3T3 tumors): inhibit tumor growth; also recorded: as potent as curcubatacin I at inhibiting tumor growth
- inhibition of growth of v-src transformed NIH 3T3 tumors (in words) (v-Src/NIH 3T3 tumors; listed as Cucurbitacin Q): as potent as cucurbatacin I at inhibiting tumor growth
